Results reported in patent US20040110802A1, “Antibacterial benzoic acid derivatives” (priority 2002, published 2004).
Converted amounts (≈) assume the structure as drawn.

Test system: SAUR 9218
Experiment: MIC Test Method, standard agar dilution
Assay type: cell-based
Conditions: agar dilution, Mueller Hinton agar, incubated overnight at 35° C.; lowest concentration that inhibits visible growth; read-out: SAUR 9218 MIC
In short: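 Agar dilution in Mueller Hinton agar with serial 2-fold compound dilutions. Staphylococcus aureus strain 9218 spotted at approximately 10^4 to 10^5 cells per spot, incubated overnight at 35 °C; MIC (μg/ml) is the lowest concentration preventing visible growth.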

Row | MIC [µg/mL] | Compound
1 | 0.5 | Cl.Cn1c(C(=O)Nc2ccc(C#N)cc2C(=O)O)cc2cccc(OCC(O)CNCc3cccs3)c21 (stereo not drawn)
2 | 0.25 (≈ 0.783 µM) | Cn1c(C(=O)Nc2ccc(C#N)cc2C(=O)O)cc2ccccc21
3 | 4 (≈ 9.45 µM) | N#Cc1ccc(NC(=O)c2cc3ccccc3n2CCCc2ccccc2)c(C(=O)O)c1
4 | 1 (≈ 2.49 µM) | CCO/N=C1\CCn2c(C(=O)Nc3ccc(C#N)cc3C(=O)O)cc3cccc1c32
5 | 0.06 (≈ 0.167 µM) | N#Cc1ccc(NC(=O)c2noc3c2CCc2ccccc2-3)c(C(=O)O)c1
6 | 0.125 (≈ 0.285 µM) | N#Cc1ccc(NC(=O)c2cc3cccc(NC(=O)Cc4ccccc4)c3[nH]2)c(C(=O)O)c1
7 | 8 (≈ 26.8 µM) | COc1cnc(C(=O)Nc2ccc(C#N)cc2C(=O)O)cn1
8 | 16 (≈ 38.3 µM) | COCCn1c(C(=O)Nc2ccc(Br)cc2C(=O)O)cc2ccccc21
9 | 0.125 (≈ 0.254 µM) | Cn1c(C(=O)Nc2cccc3cc(C(=O)Nc4ccc(C#N)cc4C(=O)O)n(C)c23)cc2ccccc21
10 | 1 (≈ 2.74 µM) | CC(=O)Oc1ccc2c(C(=O)Nc3ccc(C#N)cc3C(=O)O)noc2c1
11 | 64 (≈ 182 µM) | N#Cc1ccc(NC(=O)c2ccc(N3CCOCC3)nc2)c(C(=O)O)c1
12 | 0.25 (≈ 0.515 µM) | COc1ccc(-c2ccc3cc(C(=O)Nc4ccc(C#N)cc4C(=O)O)n(C)c3c2)c(OC)c1OC
13 | 0.125 (≈ 0.196 µM) | CS(=O)(=O)Nc1ccc(-c2cc3onc(C(=O)Nc4ccc(C#N)cc4C(=O)O)c3cc2NS(C)(=O)=O)c(C(F)(F)F)c1
14 | 0.03 (≈ 0.078 µM) | CCCCCCSc1ccc(C(=O)Nc2ccc(C#N)cc2C(=O)O)nn1
15 | 32 (≈ 50.6 µM) | Cc1sc(C(=O)Nc2ccc(Br)cc2C(=O)O)cc1S(=O)(=O)N1CCN(c2cccc(C(F)(F)F)c2)CC1
16 | 0.5 (≈ 1.33 µM) | N#Cc1ccc(NC(=O)c2noc3ccc(NCC4CC4)cc23)c(C(=O)O)c1
17 | 0.25 (≈ 0.504 µM) | N#Cc1ccc(NC(=O)c2noc3ccc(-c4ccc(C(=O)N5CCOCC5)cc4)cc23)c(C(=O)O)c1
18 | 0.5 (≈ 1.43 µM) | CCNc1ccc2onc(C(=O)Nc3ccc(C#N)cc3C(=O)O)c2c1
19 | 8 (≈ 17.3 µM) | Cc1sc(C(=O)Nc2ccc(C#N)cc2C(=O)O)cc1S(=O)(=O)N1CCCCCCC1
20 | > 128 | O=C(Nc1ccc(Br)cc1C(=O)O)c1ccsc1
21 | 0.25 (≈ 0.571 µM) | N#Cc1ccc(NC(=O)c2cc3cccc4c3n2CCC4Oc2ccccc2)c(C(=O)O)c1 (stereo not drawn)
22 | > 128 | CCCCN(CCCC)CCCNS(=O)(=O)c1csc(C(=O)Nc2ccc(Br)cc2C(=O)O)c1C
23 | 1 (≈ 2.27 µM) | N#Cc1ccc(NC(=O)c2noc3ccc(NC(=O)Cc4ccccc4)cc23)c(C(=O)O)c1
24 | 0.06 (≈ 0.113 µM) | O=C(O)c1cc(Br)ccc1NC(=O)c1noc2ccc(S(=O)(=O)NCc3ccccc3)cc12

Row | MIC [µg/mL] | Compound
25 | > 128 | COc1ccc(-c2cc(C(=O)Nc3ccc(Br)cc3C(=O)O)nn2C)cc1
26 | 0.5 (≈ 1.12 µM) | N#Cc1ccc(NC(=O)c2cc3cccc(NC(=O)Cc4cccs4)c3[nH]2)c(C(=O)O)c1
27 | 0.06 (≈ 0.133 µM) | CCCCCCCSc1ccc(C(=O)Nc2ccc(Br)cc2C(=O)O)nn1
28 | 16 (≈ 50.1 µM) | Cn1cc(C(=O)Nc2ccc(C#N)cc2C(=O)O)c2ccccc21
29 | 128 (≈ 270 µM) | Cc1ncsc1CCOc1ccccc1-c1cc(C(=O)Nc2ccc(C#N)cc2C(=O)O)no1
30 | 0.125 (≈ 0.324 µM) | N#Cc1ccc(NC(=O)c2noc3ccc(Br)cc23)c(C(=O)O)c1
31 | 8 (≈ 14.8 µM) | O=C(Nc1ccc(Br)cc1C(=O)O)c1csc(S(=O)(=O)N2CCc3ccc(Cl)cc32)c1
32 | 0.5 (≈ 1.21 µM) | CCCCCCCCSc1cnc(C(=O)Nc2ccc(C#N)cc2C(=O)O)cn1
33 | 0.5 (≈ 1.07 µM) | COCCOCCCSc1ccc(C(=O)Nc2ccc(Br)cc2C(=O)O)cn1
34 | 0.5 (≈ 0.987 µM) | N#Cc1ccc(NC(=O)c2cc3cccc(NC(=O)Cc4ccc(C(F)(F)F)cc4)c3[nH]2)c(C(=O)O)c1
35 | > 128 | N#Cc1ccc(NC(=O)c2cc(-c3ccccc3Oc3cccc(-c4ccccc4)c3)on2)c(C(=O)O)c1
36 | 0.5 (≈ 1.04 µM) | N#Cc1ccc(NC(=O)c2cc3cccc(NC(=O)Cc4ccc5c(c4)OCO5)c3[nH]2)c(C(=O)O)c1
37 | > 128 | COc1ccc(-c2cnc(C(=O)Nc3ccc(C#N)cc3C(=O)O)cn2)cn1
38 | > 128 | CCN(CC)c1ccc(NS(=O)(=O)c2cc(C(=O)Nc3ccc(Br)cc3C(=O)O)cs2)cc1
39 | 0.25 (≈ 0.637 µM) | CCN(C(C)=O)c1ccc2onc(C(=O)Nc3ccc(C#N)cc3C(=O)O)c2c1
40 | 1 (≈ 2.32 µM) | CC(C)(C)O/N=C1\CCn2c(C(=O)Nc3ccc(C#N)cc3C(=O)O)cc3cccc1c32
41 | 0.25 (≈ 0.72 µM) | Cc1c(C(=O)Nc2ccc(C#N)cc2C(=O)O)noc1-c1ccccc1
42 | 1 (≈ 2.2 µM) | O=C(Nc1ccc(Br)cc1C(=O)O)c1cc(-c2ccc(C(F)(F)F)cc2)on1
43 | 0.25 (≈ 0.623 µM) | N#Cc1ccc(NC(=O)c2cc(-c3ccccc3C(F)(F)F)on2)c(C(=O)O)c1
44 | 8 (≈ 15.1 µM) | CN(c1ccc(Cl)cc1)S(=O)(=O)c1csc(C(=O)Nc2ccc(Br)cc2C(=O)O)c1
45 | 0.5 (≈ 1.08 µM) | N#Cc1ccc(NC(=O)c2noc3cc(OS(=O)(=O)c4ccccc4)ccc23)c(C(=O)O)c1
46 | 0.5 (≈ 1.08 µM) | C#CCCOCC(O)COc1cccc2cc(C(=O)Nc3ccc(C#N)cc3C(=O)O)n(C)c12 (stereo not drawn)
47 | 1 (≈ 1.9 µM) | Cn1c(C(=O)Nc2ccc(C#N)cc2C(=O)O)cc2ccc(NS(=O)(=O)c3cccc4cccnc34)cc21
48 | 2 (≈ 5.95 µM) | COc1ccc2oc(C(=O)Nc3ccc(C#N)cc3C(=O)O)cc2c1

Row | MIC [µg/mL] | Compound
49 | 0.5 (≈ 1.16 µM) | CN(C)S(=O)(=O)Nc1ccc2onc(C(=O)Nc3ccc(C#N)cc3C(=O)O)c2c1
50 | 0.5 (≈ 1.04 µM) | N#Cc1ccc(NC(=O)c2noc3cc(NS(=O)(=O)c4ccc(F)cc4)ccc23)c(C(=O)O)c1
51 | 0.0075 (≈ 0.0121 µM) | CC(=O)Nc1ccc(-c2cc3onc(C(=O)Nc4ccc(Br)cc4C(=O)O)c3cc2NC(C)=O)c(C(F)(F)F)c1
52 | 8 (≈ 14.9 µM) | Cc1sc(C(=O)Nc2ccc(Br)cc2C(=O)O)cc1S(=O)(=O)NC1Cc2ccccc2C1
53 | 0.5 (≈ 1.36 µM) | N#Cc1ccc(NC(=S)c2cc(-c3ccccc3F)on2)c(C(=O)O)c1
54 | 0.125 (≈ 0.407 µM) | N#Cc1ccc(NC(=O)c2noc3ccccc23)c(C(=O)O)c1
55 | 4 (≈ 11.4 µM) | COc1cnc(C(=O)Nc2ccc(Br)cc2C(=O)O)cn1
56 | 64 (≈ 151 µM) | O=C(O)c1cc(Br)ccc1NC(=O)c1ncc(C(F)(F)F)cc1Cl
57 | 64 (≈ 113 µM) | CCN(CC)c1ccc(NS(=O)(=O)c2csc(C(=O)Nc3ccc(Br)cc3C(=O)O)c2C)cc1
58 | 0.5 (≈ 1.37 µM) | CCCCSc1cnc(C(=O)Nc2ccc(Cl)cc2C(=O)O)cn1
59 | > 128 | CSc1ncc(Cl)c(C(=O)Nc2ccc(Br)cc2C(=O)O)n1
60 | 1 (≈ 2.75 µM) | COc1ccc(-c2cnc(C(=O)Nc3ccc(C#N)cc3C(=O)O)o2)cc1
61 | 0.5 (≈ 1.21 µM) | N#Cc1ccc(NC(=O)c2noc3ccc(-c4ccccc4CO)cc23)c(C(=O)O)c1
62 | 64 (≈ 212 µM) | Cn1c(/C=C/c2ccc(C#N)cc2C(=O)O)cc2ccccc21
63 | 0.5 (≈ 1.3 µM) | N#Cc1ccc(NC(=O)c2nsc(-c3ccccc3)c2Cl)c(C(=O)O)c1
64 | 8 (≈ 14.8 µM) | COc1cc2c(cc1OC)CN(S(=O)(=O)c1cc(C(=O)Nc3ccc(C#N)cc3C(=O)O)sc1C)CC2
65 | 1 (≈ 2.03 µM) | Cc1nc(S(=O)(=O)Nc2cccc3cc(C(=O)Nc4ccc(C#N)cc4C(=O)O)n(C)c23)cn1C
66 | 2 (≈ 5.33 µM) | CCCCCn1c(C(=O)Nc2ccc(C#N)cc2C(=O)O)cc2ccccc21
67 | 0.5 (≈ 1.17 µM) | CCS(=O)(=O)Nc1cccc2cc(C(=O)Nc3ccc(C#N)cc3C(=O)O)n(C)c12
68 | 0.25 (≈ 0.655 µM) | N#Cc1ccc(NC(=O)c2cc(CCCC3CCCCC3)on2)c(C(=O)O)c1
69 | > 128 | N#Cc1ccc(NC(=O)c2cncc(-c3ccc(C(F)(F)F)cc3)c2)c(C(=O)O)c1
70 | 1 (≈ 1.98 µM) | Cn1c(C(=O)Nc2ccc(C#N)cc2C(=O)O)c(Br)c2cccc(OCc3ccccc3)c21
71 | 1 (≈ 2.63 µM) | COCCNc1ccc2onc(C(=O)Nc3ccc(C#N)cc3C(=O)O)c2c1
72 | 0.5 (≈ 1.07 µM) | COc1cccc(CC(=O)Nc2cccc3cc(C(=O)Nc4ccc(C#N)cc4C(=O)O)[nH]c23)c1

Row | MIC [µg/mL] | Compound
73 | 0.5 (≈ 1.13 µM) | N#Cc1ccc(NC(=O)c2cc3cccc(NC(=O)c4cccc(F)c4)c3[nH]2)c(C(=O)O)c1
74 | 4 (≈ 8.31 µM) | Cc1sc(C(=O)Nc2ccc(C#N)cc2C(=O)O)cc1S(=O)(=O)N1CCc2ccccc2C1
75 | 0.5 (≈ 1.19 µM) | CCCCCC(=O)Nc1cccc2cc(C(=O)Nc3ccc(C#N)cc3C(=O)O)[nH]c12
76 | 0.125 (≈ 0.331 µM) | CCOc1ccccc1-c1cc(C(=O)Nc2ccc(C#N)cc2C(=O)O)no1
77 | 32 (≈ 77.6 µM) | N#Cc1ccc(NC(=O)c2cnc(-c3ccccc3C(F)(F)F)cn2)c(C(=O)O)c1
78 | 1 (≈ 2.47 µM) | CCCC(=O)Nc1ccc2cc(C(=O)Nc3ccc(C#N)cc3C(=O)O)n(C)c2c1
79 | > 128 | Cc1sc(C(=O)Nc2ccc(Br)cc2C(=O)O)cc1S(=O)(=O)NC1CCN(Cc2ccccc2)CC1
80 | 1 (≈ 2.47 µM) | CCC(C)C(=O)Nc1cccc2cc(C(=O)Nc3ccc(C#N)cc3C(=O)O)[nH]c12 (stereo not drawn)
81 | 0.5 (≈ 1.04 µM) | CC(C)c1ccc(CC(=O)Nc2cccc3cc(C(=O)Nc4ccc(C#N)cc4C(=O)O)[nH]c23)cc1
82 | 0.125 (≈ 0.296 µM) | O=C(Nc1ccc(Br)cc1C(=O)O)c1cc(-c2ccccc2Cl)on1
83 | 0.125 (≈ 0.294 µM) | Cn1c(C(=O)Nc2ccc(C#N)cc2C(=O)O)cc2cccc(OCc3ccccc3)c21
84 | 8 (≈ 17 µM) | O=C(Nc1ccc(-c2ccccc2C(F)(F)F)cc1C(=O)O)c1cc(-c2ccccc2F)on1
85 | 64 (≈ 202 µM) | N#Cc1ccc(/C=C/c2cc(-c3ccccc3)on2)c(C(=O)O)c1
86 | 0.25 (≈ 0.596 µM) | N#Cc1ccc(NC(=O)c2cc(-c3ccccc3OC3CCOC3)on2)c(C(=O)O)c1 (stereo not drawn)
87 | 4 (≈ 12.2 µM) | Cn1c(C(=O)Nc2ccc(Cl)cc2C(=O)O)cc2ccccc21
88 | 1 (≈ 2.49 µM) | N#Cc1ccc(NC(=O)c2cc3ccccc3n2CC2CCCCC2)c(C(=O)O)c1
89 | 0.125 (≈ 0.223 µM) | Cn1c(C(=O)Nc2ccc(I)cc2C(=O)O)cc2cccc(S(=O)(=O)c3ccccc3)c21
90 | > 128 | N#Cc1ccc(NC(=O)c2cncc(-c3ccccn3)c2)c(C(=O)O)c1
91 | 2 (≈ 4.7 µM) | COCCOCCCSc1cnc(C(=O)Nc2ccc(Cl)cc2C(=O)O)cn1
92 | 0.5 (≈ 1.16 µM) | Cn1c(C(=O)Nc2ccc(C#N)cc2C(=O)O)cc2ccc(NC(=O)c3ccno3)cc21
93 | 0.5 (≈ 1.14 µM) | CC(=O)Nc1cccc(-c2ccc3onc(C(=O)Nc4ccc(C#N)cc4C(=O)O)c3c2)c1
94 | 4 (≈ 7.2 µM) | Cc1sc(C(=O)Nc2ccc(C#N)cc2C(=O)O)cc1S(=O)(=O)N1CCN(c2ccc([N+](=O)[O-])cc2)CC1
95 | 0.5 (≈ 0.972 µM) | N#Cc1ccc(NC(=O)c2cc3cccc(NC(=O)Cc4ccc(-c5ccccc5)cc4)c3[nH]2)c(C(=O)O)c1

Row | Compound | MIC [µg/mL]
96 | CCOP(=O)(Cc1ccc(NS(=O)(=O)c2cc(C(=O)Nc3ccc(Br)cc3C(=O)O)sc2C)cc1)OCC | 64 (≈ 99.1 µM)
